Reference: patent US10543223B2, “Mannose derivatives useful for treating pathologies associated with adherent E. coli” (ENTEROME, priority 2015, dated 2020)
“And” between values parts separate entries of the source, which are not always exact repeats. Equal values may be shown once. Read-outs that look alike come from different tables or passages of the source.

What was measured:
[1] = Faeces concentrations and recovery after IV and PO administration to rats; type: in vivo, Sprague Dawley rats; settings: 0-24 h; for dose excreted: Sprague Dawley, rat, faeces
Method: Plasma and faeces concentrations after administration of Compound 1b and for compound 13 of WO 2014/016361 at 1 mg/kg by intravenous route and 10 mg/kg by oral route to Sprague Dawley rats Blank rat faeces are homogenized with 3 volumes of UHQ water until obtention of a paste. Then 100 μL of the homogenate are spiked with the molecules and precipitated with 300 μL of acetonitrile. The concentration ranges tested are: • 0.5 ng/mL to 1000 ng/mL for plasma, • 4 to 2000 ng/g for faeces, corresponding to 1 to 500 ng/mL of faeces homogenate. 3. In-Life Part After administration, the animals are placed in individual metabolic cages in order to collect faeces samples during 24 hours. Faeces samples are collected over the 24 hours of the experiment. They are precisely weighed and 3 volumes of UHQ water are added. The mixture is homogeneized until obtention of a paste. Then 100 μL of the homogenate are taken and extracted with 300 μL of Acetonitrile. Analysis is performed using LC-MS/MS determination according to previous analytical test results.

[2] = Plasma concentrations and pharmacokinetics after IV and PO administration to rats; type: in vivo, Sprague Dawley rats; settings: for % AUCextra / AUC(0-inf) / AUC(0-t) / Cmax / Tmax: DMSO, based on mean data
Method: Plasma and faeces concentrations after administration of Compound 1b and for compound 13 of WO 2014/016361 at 1 mg/kg by intravenous route and 10 mg/kg by oral route to Sprague Dawley rats
At least 8 point calibration standards are run using standard conditions which consist to LC-MS/MS system with C18 column after precipitation of proteins with acetonitrile before the start of the analytical test.
For the plasma, 100 μL of blank rat plasma are directly spiked with the compounds before being precipitate with 300 μL of acetonitrile.
The concentration ranges tested are: • 0.5 ng/mL to 1000 ng/mL for plasma, • 4 to 2000 ng/g for faeces, corresponding to 1 to 500 ng/mL of faeces homogenate. 3. In-Life Part
12 male Sprague Dawley rats around 6-7 week old are used.
At prescribed times, blood is collected. Animals are briefly anaesthetised with Isoflurane® using an anaesthetic system (Équipement Vétérinaire Minerve) during blood samplings.
Blood samples are centrifuged at 2500 rpm at +4° C. (between 0 and 9° C.), the plasma is removed and placed into labelled polypropylene tubes. Individual plasma samples are stored frozen at −20° C. (target temperature) until analysis.
100 μL of the plasma sample are taken and 300 μL of acetonitrile are added. After protein precipitation, analysis is performed using LC-MS/MS determination according to previous analytical test results.
Concentrations of the samples are calculated directly from chromatograms after automatic integration by Analyst® 1.5.1 and expressed as ng/mL.
Mean plasma concentrations are calculated (when calculable, i.e. n≥2) using individual concentration and are expressed with the corresponding standard deviation value and variation coefficient (when calculable, i.e. n≥3), with
[formula] The individual plasma concentrations are tabulated for each rat and scheduled sampling time. Concentrations below the LLOQ are indicated by BLQ. All BLQ concentrations are substituted by zero for calculation of the descriptive statistics of the concentrations. 5. Results Estimation of pharmacokinetics parameters is performed using Kinetica® (Version 4.3—Thermo Electron Corporation—Philadelphia—USA). It was performed by using a one-compartment model approach, which considers the body as a single compartment in which the concentration is homogeneous. The following parameters are estimated: Cmax (ng/mL): maximal plasma concentration Tmax (h): first time to reach Cmax AUCt (ng/mL*h): area under the plasma concentration-time curve from administration up to the last quantifiable concentration at time t
[formula] “BLQ” stands for “Below the Limit of Quantification” ([…] for plasma). Compound 1b

[3] = IV 1 mg/kg, individual rats IV1-IV3, 1 mg/kg
[4] = PO 10 mg/kg, individual rats PO4-PO6, 10 mg/kg
[5] = male, Sprague Dawley, rat, plasma, IV 1 mg/kg
[6] = male, Sprague Dawley, rat, plasma, PO 10 mg/kg

- Faeces concentration [1, 3]: 3303 ng/g and 3130 ng/g and 3346 ng/g
- Faeces concentration (homogenate) [1, 3]: 826 ng/mL and 783 ng/mL and 836 ng/mL
- Recovery in faeces [1, 3]: 10.9% and 15.9%
- Total amount of compound in faeces [1, 3]: 30095 ng and 28426 ng and 38053 ng
- Faeces concentration (homogenate), mean ([1]; IV 1 mg/kg, mean of 3 rats): 815 ng/mL
- Faeces concentration, mean ([1]; IV 1 mg/kg, mean of 3 rats): 3260 ng/g
- Total amount of compound in faeces, mean ([1]; IV 1 mg/kg, mean of 3 rats): 32191 ng
- Recovery in faeces [1, 4]: 57.9% and 49.3%
- Total amount of compound in faeces [1, 4]: 1203583 ng and 1389086 ng and 1183679 ng
- Faeces concentration (homogenate), mean ([1]; PO 10 mg/kg, mean of 3 rats): 33510 ng/mL
- Faeces concentration, mean ([1]; PO 10 mg/kg, mean of 3 rats): 134039 ng/g
- Total amount of compound in faeces, mean ([1]; PO 10 mg/kg, mean of 3 rats): 1258783 ng
- dose excreted ([1]; iv, 1 mg/kg, IV 1 mg/kg, individual rats IV1-IV3, read-out: Recovery in faeces): 13.1%
- dose excreted ([1]; iv, 1 mg/kg, IV 1 mg/kg, mean of 3 rats, read-out: Recovery in faeces, mean): 13.3%
- dose excreted ([1]; po, 10 mg/kg, PO 10 mg/kg, individual rats PO4-PO6, read-out: Recovery in faeces): 50.1%
- Plasma concentration ([2]; IV 1 mg/kg, 0.083 h, individual rats IV1-IV3, 1 mg/kg): 1451.7 ng/mL and 1443.6 ng/mL
- Plasma concentration ([2]; IV 1 mg/kg, 0.5 h, individual rats IV1-IV3, 1 mg/kg): 67.6 ng/mL and 58.5 ng/mL
- Plasma concentration ([2]; IV 1 mg/kg, 2 h, individual rats IV1-IV3, 1 mg/kg): 1.6 ng/mL and 1.8 ng/mL
- Plasma concentration ([2]; IV 1 mg/kg, 6 h, individual rats IV1-IV3): BLQ
- Plasma concentration ([2]; IV 1 mg/kg, 24 h, individual rats IV1-IV3): BLQ
- % AUCextra ([2]; IV 1 mg/kg): 0.11%
- Plasma concentration ([2]; PO 10 mg/kg, 0.5 h, individual rats PO4-PO6, 10 mg/kg): 10.9 ng/mL and 7.0 ng/mL
- Plasma concentration ([2]; PO 10 mg/kg, 1 h, individual rats PO4-PO6, 10 mg/kg): 4.6 ng/mL and 5.4 ng/mL
- Plasma concentration ([2]; PO 10 mg/kg, 2 h, individual rats PO4-PO6, 10 mg/kg): 2.3 ng/mL and 2.0 ng/mL
- Plasma concentration ([2]; PO 10 mg/kg, 6 h, individual rats PO4-PO6, 10 mg/kg): 1.9 ng/mL and 1.6 ng/mL
- Plasma concentration ([2]; PO 10 mg/kg, 24 h, individual rats PO4-PO6): BLQ
- % AUCextra ([2]; PO 10 mg/kg): 32.3%
- concentration at 0.083 h ([2]; male, Sprague Dawley, rat, plasma, iv, 1 mg/kg, IV 1 mg/kg, 0.083 h, individual rats IV1-IV3, read-out: Plasma concentration): 1130 ng/mL
- concentration at 0.083 h ([2]; male, Sprague Dawley, rat, plasma, iv, 1 mg/kg, IV 1 mg/kg, 0.083 h, mean of 3 rats (BLQ = 0), read-out: Plasma concentration, mean): 1340 ng/mL
- concentration at 0.5 h ([2]; male, Sprague Dawley, rat, plasma, iv, 1 mg/kg, IV 1 mg/kg, 0.5 h, individual rats IV1-IV3, read-out: Plasma concentration): 56.1 ng/mL
- concentration at 0.5 h ([2]; male, Sprague Dawley, rat, plasma, iv, 1 mg/kg, IV 1 mg/kg, 0.5 h, mean of 3 rats (BLQ = 0), read-out: Plasma concentration, mean): 60.8 ng/mL
- concentration at 2 h ([2]; male, Sprague Dawley, rat, plasma, iv, 1 mg/kg, IV 1 mg/kg, 2 h, individual rats IV1-IV3, read-out: Plasma concentration): 1.6 ng/mL
- concentration at 2 h ([2]; male, Sprague Dawley, rat, plasma, iv, 1 mg/kg, IV 1 mg/kg, 2 h, mean of 3 rats (BLQ = 0), read-out: Plasma concentration, mean): 1.6 ng/mL
- concentration at 6 h ([2]; male, Sprague Dawley, rat, plasma, iv, 1 mg/kg, IV 1 mg/kg, 6 h, mean of 3 rats (BLQ = 0), read-out: Plasma concentration, mean): 0 ng/mL
- concentration at 24 h ([2]; male, Sprague Dawley, rat, plasma, iv, 1 mg/kg, IV 1 mg/kg, 24 h, mean of 3 rats (BLQ = 0)): 0 ng/mL
- concentration at 0.5 h ([2]; male, Sprague Dawley, rat, plasma, po, 10 mg/kg, PO 10 mg/kg, 0.5 h, individual rats PO4-PO6, read-out: Plasma concentration): 5.5 ng/mL
- concentration at 0.5 h ([2]; male, Sprague Dawley, rat, plasma, po, 10 mg/kg, PO 10 mg/kg, 0.5 h, mean of 3 rats (BLQ = 0), read-out: Plasma concentration, mean): 7.8 ng/mL
- concentration at 1 h ([2]; male, Sprague Dawley, rat, plasma, po, 10 mg/kg, PO 10 mg/kg, 1 h, individual rats PO4-PO6, read-out: Plasma concentration): 3.3 ng/mL
- concentration at 1 h ([2]; male, Sprague Dawley, rat, plasma, po, 10 mg/kg, PO 10 mg/kg, 1 h, mean of 3 rats (BLQ = 0), read-out: Plasma concentration, mean): 4.4 ng/mL
- concentration at 2 h ([2]; male, Sprague Dawley, rat, plasma, po, 10 mg/kg, PO 10 mg/kg, 2 h, individual rats PO4-PO6, read-out: Plasma concentration): 1.9 ng/mL
- concentration at 2 h ([2]; male, Sprague Dawley, rat, plasma, po, 10 mg/kg, PO 10 mg/kg, 2 h, mean of 3 rats (BLQ = 0), read-out: Plasma concentration, mean): 2 ng/mL
- concentration at 6 h ([2]; male, Sprague Dawley, rat, plasma, po, 10 mg/kg, PO 10 mg/kg, 6 h, individual rats PO4-PO6, read-out: Plasma concentration): 1.7 ng/mL
- concentration at 6 h ([2]; male, Sprague Dawley, rat, plasma, po, 10 mg/kg, PO 10 mg/kg, 6 h, mean of 3 rats (BLQ = 0), read-out: Plasma concentration, mean): 1.7 ng/mL
- concentration at 24 h ([2]; male, Sprague Dawley, rat, plasma, po, 10 mg/kg, PO 10 mg/kg, 24 h, mean of 3 rats (BLQ = 0)): 0 ng/mL
- AUC(0-inf) [2, 5]: 452 ng·h/mL
- AUC(0-t) [2, 5]: 451 ng·h/mL
- Cmax [2, 5]: 1340 ng/mL
- Tmax [2, 5]: 4.8 min
- bioavailability ([2]; male, Sprague Dawley, rat, plasma, PO 10 mg/kg vs IV 1 mg/kg, calculated based on AUCt, read-out: F (bioavailability)): 0.3%
- AUC(0-t) [2, 6]: 16 ng·h/mL
- Cmax [2, 6]: 7.79 ng/mL
- Tmax [2, 6]: 30 min
- AUC(0-inf) ([2]; male, Sprague Dawley, rat, plasma, PO 10 mg/kg, % AUC extra >20%: value given for indication): 23.3 ng·h/mL
Structure (SMILES): Cc1nc(-c2cnccn2)sc1C(=O)c1cnc(N[C@H]2O[C@H](CO)[C@@H](O)[C@H](O)[C@@H]2O)s1 [13 of WO 2014/016361]
- Faeces concentration [1, 4]: 103917 ng/g and 165663 ng/g and 132537 ng/g
- Faeces concentration (homogenate) [1, 4]: 25979 ng/mL and 41416 ng/mL and 33134 ng/mL
